Laboratory results as given in ChEMBL document CHEMBL4251584, “Xanthine oxidase inhibitory activity of natural and hemisynthetic flavonoids from Gardenia oudiepe (Rubiaceae) in vitro and molecular docking studies” (Eur J Med Chem, 2018).

Tests used:
[1] = molecular target: T1, Xanthine dehydrogenase/oxidase (Bos taurus, UniProt P80457); experiment: Potency index, ratio of IC50 for allopurinol to IC50 for test compound for inhibition of bovine milk xanthine oxidase using xanthine as substrate preincubated for 15 mins followed by substrate addition measured after 30 mins by UV-VIS spectrophotometric analysis; settings: cattle, 0.5 h
T1 sequence (P80457 whole entry): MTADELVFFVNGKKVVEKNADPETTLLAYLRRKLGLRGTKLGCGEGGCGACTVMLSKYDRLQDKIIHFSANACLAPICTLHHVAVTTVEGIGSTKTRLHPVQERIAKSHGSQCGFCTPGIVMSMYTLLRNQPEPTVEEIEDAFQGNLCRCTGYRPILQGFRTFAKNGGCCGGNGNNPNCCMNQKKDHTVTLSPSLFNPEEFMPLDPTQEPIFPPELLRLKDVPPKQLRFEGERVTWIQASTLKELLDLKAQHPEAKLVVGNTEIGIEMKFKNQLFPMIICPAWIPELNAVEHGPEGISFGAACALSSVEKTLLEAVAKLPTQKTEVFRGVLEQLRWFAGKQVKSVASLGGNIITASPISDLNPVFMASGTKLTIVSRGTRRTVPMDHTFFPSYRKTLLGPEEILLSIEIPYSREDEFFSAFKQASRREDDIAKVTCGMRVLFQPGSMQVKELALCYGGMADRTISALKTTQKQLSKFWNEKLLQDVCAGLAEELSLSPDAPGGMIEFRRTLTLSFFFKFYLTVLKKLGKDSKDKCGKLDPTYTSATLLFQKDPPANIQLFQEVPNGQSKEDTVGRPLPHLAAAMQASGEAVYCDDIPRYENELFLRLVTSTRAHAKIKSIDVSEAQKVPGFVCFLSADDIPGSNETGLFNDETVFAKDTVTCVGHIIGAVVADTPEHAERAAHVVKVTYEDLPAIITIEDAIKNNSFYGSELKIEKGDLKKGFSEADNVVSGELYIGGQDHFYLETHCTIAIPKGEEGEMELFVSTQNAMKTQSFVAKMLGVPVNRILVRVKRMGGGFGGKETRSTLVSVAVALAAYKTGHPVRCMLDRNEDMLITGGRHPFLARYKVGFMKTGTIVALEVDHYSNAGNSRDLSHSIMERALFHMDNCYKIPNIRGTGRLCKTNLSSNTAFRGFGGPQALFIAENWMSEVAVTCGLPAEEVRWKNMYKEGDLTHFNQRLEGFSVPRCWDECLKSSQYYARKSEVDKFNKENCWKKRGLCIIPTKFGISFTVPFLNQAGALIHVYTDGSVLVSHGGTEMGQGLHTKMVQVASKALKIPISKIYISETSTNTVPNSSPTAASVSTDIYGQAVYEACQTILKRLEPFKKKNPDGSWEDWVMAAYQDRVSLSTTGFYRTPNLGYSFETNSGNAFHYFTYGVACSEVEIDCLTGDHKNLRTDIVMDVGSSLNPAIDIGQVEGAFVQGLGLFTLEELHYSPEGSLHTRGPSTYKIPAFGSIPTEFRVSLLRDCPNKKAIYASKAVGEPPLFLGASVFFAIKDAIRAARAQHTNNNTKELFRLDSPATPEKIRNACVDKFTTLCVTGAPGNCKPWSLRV

[2] = molecular target: T1, Xanthine dehydrogenase/oxidase; experiment: Inhibition of bovine milk xanthine oxidase using xanthine as substrate preincubated for 15 mins followed by substrate addition measured after 30 mins by UV-VIS spectrophotometric analysis; settings: for inhibition (INH): cattle, 0.5 h

Row | IC50 [2] [µM] | inhibition (INH) [2] | SMILES | Ratio IC50 [1]
1 | 0.09 | Dose-dependent effect | COc1cc(-c2oc3cc(O)cc(O)c3c(=O)c2OC)cc(O)c1OC | 3
2 | 4.54 | Dose-dependent effect | COc1cc(-c2oc3cc(O)c(OC)c(O)c3c(=O)c2OC)cc(OC)c1OC | –
3 | 6.95 | Dose-dependent effect | COc1cc(-c2oc3cc(O)c(OC)c(O)c3c(=O)c2OC)cc(O)c1OC | –
4 | 21 | Dose-dependent effect | COc1cc(O)c2c(=O)c(OC)c(-c3cc(O)c(OC)c(OC)c3)oc2c1 | –
5 | 14.9 | Dose-dependent effect | COc1ccc(-c2oc3cc(OC)c(OC)c(O)c3c(=O)c2OC)cc1 | –
6 | 9.79 | Dose-dependent effect | COc1ccc(-c2oc3cc(OC)cc(O)c3c(=O)c2OC)cc1 | –
7 | 0.05 | Dose-dependent effect | COc1c(O)cc2oc(-c3ccc(O)cc3)c(OC)c(=O)c2c1O [3,6-DIMETHOXY KAEMPFEROL] | 5
8 | 0.004 | Dose-dependent effect | COc1c(-c2ccc(O)cc2)oc2cc(O)cc(O)c2c1=O [ISOKAEMPFERIDE] | 63
9 | 0.22 | Dose-dependent effect | COc1ccc(-c2oc3cc(O)c(OC)c(O)c3c(=O)c2OC)cc1 [SANTIN] | –
